Paper PMC10216478, “Development of a Non-Peptide Angiotensin II Type 1 Receptor Ligand by Structural Modification of Olmesartan as a Biased Agonist” (Biomedicines, 2023)
Where a chain is given by its changes, count along the chain named.

What was measured:
[1] = target: T1, AT1 N295A receptor (Rattus norvegicus, UniProt P25095, N295A); assay: Competition binding study, 125I-[Sar1,Ile8]Ang II, AT1 N295A receptor; details: competition with 125I-[Sar1,Ile8]Ang II, n = 3, mean ± standard error, read-out: Binding affinity (Kd)
T1 construct: expressed in transfected cells; host or cells: COS7
T1 sequence (P25095 1-359 N295A): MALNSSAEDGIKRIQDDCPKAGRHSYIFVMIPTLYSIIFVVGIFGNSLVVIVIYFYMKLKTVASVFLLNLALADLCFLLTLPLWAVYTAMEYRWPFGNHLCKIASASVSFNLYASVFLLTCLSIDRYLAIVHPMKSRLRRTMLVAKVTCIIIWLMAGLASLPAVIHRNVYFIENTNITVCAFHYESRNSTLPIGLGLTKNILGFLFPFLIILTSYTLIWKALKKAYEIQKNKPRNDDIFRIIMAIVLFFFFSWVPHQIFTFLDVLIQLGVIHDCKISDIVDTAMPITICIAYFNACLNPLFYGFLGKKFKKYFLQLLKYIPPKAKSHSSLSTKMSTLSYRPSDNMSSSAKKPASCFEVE
From the text: (§1) We mutated four amino acids in transmembrane (TM) III, VI, and VII in the AT1 receptor (L112A, Q257A, Y292A, and N295A receptors). We determined the mutation sites of the AT1 receptor according to ARB, which produced olmesartan derivatives with different interactions and functions toward the AT1 receptor, as previously reported by Zhang et al., since the additional 4-hydroxybenzyl groups of R781253 and R794847 were predicted to extend to a sub-pocket on the bottom of the AT1 receptor ligand-binding pocket consisting of Leu^112 and Gln^257. In addition, since the biased ligand TRV027 induced changes near the NPxxY motif in TM domain 7 that are related to receptor activation, Tyr^292 and Asn^295 in the AT1 receptor were mutated.
The synthetic rat AT1 receptor gene, which was cloned in the shuttle expression vector pMT-2, was used for expression and mutagenesis, as described previously. COS7 cells (No. CRL-1651, ATCC, Manassas, VA, USA) were cultured in 10% fetal bovine serum (FBS) and penicillin- and streptomycin-supplemented Dulbecco’s modified Eagle’s essential medium (PS-DMEM) in 5% CO2 at 37 °C. In the experiments, cells were grown without a cell-growth supplement. To express the AT1 receptor protein, 10 µg of purified plasmid DNA per 10^7 cells was used in the transfection. Wild-type and mutated AT1 receptors were transiently transfected into cells using Lipofectamine 2000 liposomal reagent (Roche Applied Science, Penzberg, Germany). Cells were plated and grown and were 70–90% confluent at the time of transfection. We incubated plasmid DNA (10 µg)–lipid (10 µL) complexes for 5 min at room temperature and added and incubated the complexes with cells for 24 h. We then analyzed the parameters in transfected cells. Cell viability was >95% according to trypan blue exclusion analysis in the control experiments. Transfected cells that had been cultured for 48–72 h were harvested. Cell membranes were prepared using the nitrogen Parr bomb disruption or freeze–thaw methods.
The Kd (nM) values of receptor binding were determined with ^125I-[Sar^1, Ile^8]AngII-binding experiments under equilibrium conditions. Binding kinetics were determined following the methods described in the literature. We carried out binding by using ^125I-[Sar^1, Ile^8] AngII (2200 Ci/mmol) and an increasing concentration (10^−11–10^−5 M) of each unlabeled compound. Nonspecific binding of ^125I-[Sar^1, Ile^8] Ang II was determined in the presence of a high concentration (10^−6 M) of unlabeled [Sar^1, Ile^8]. Next, the incubation mixture was separated by vacuum filtration through Whatman GF/C glass filters (Disposable Filter Funnels Grade GF/C, GE Healthcare), and presoaked with 0.1% polyethylenimine. The filter was washed with 3 mL of ice-cold stop buffer (25 mM Tris–HCl, pH 7.4, 1 mM MgCl2). The radioactivity trapped on the filters was quantified using an automatic γ-counter. The percentage (%) of specific binding of ^125I-[Sar^1, Ile^8]Ang II was calculated using the following formula: 100 × (% total binding of ^125I-[Sar^1, Ile^8]Ang II—nonspecific binding of ^125I-[Sar^1, Ile^8]Ang II)/(% total binding of ^125I-[Sar^1, Ile^8]Ang II).

[2] = target: T2, AT1 L112A receptor (Rattus norvegicus, UniProt P25095, L112A); assay: Competition binding study, 125I-[Sar1,Ile8]Ang II, AT1 L112A receptor; details: competition with 125I-[Sar1,Ile8]Ang II, n = 3, mean ± standard error, read-out: Binding affinity (Kd)
T2 construct: expressed in transfected cells; host or cells: COS7
T2 sequence (P25095 1-359 L112A): T1 sequence (P25095 1-359 N295A) with L112A, A295N
From the text: as §1
The synthetic rat AT1 receptor gene, which was cloned in the shuttle expression vector pMT-2, was used for expression and mutagenesis, as described previously. COS7 cells (No. CRL-1651, ATCC, Manassas, VA, USA) were cultured in 10% fetal bovine serum (FBS) and penicillin- and streptomycin-supplemented Dulbecco’s modified Eagle’s essential medium (PS-DMEM) in 5% CO2 at 37 °C. In the experiments, cells were grown without a cell-growth supplement. To express the AT1 receptor protein, 10 µg of purified plasmid DNA per 10^7 cells was used in the transfection. […] We then analyzed the parameters in transfected cells. […]
The Kd (nM) values of receptor binding were determined with ^125I-[Sar^1, Ile^8]AngII-binding experiments under equilibrium conditions. Binding kinetics were determined following the methods described in the literature. […] Ang II was determined in the presence of a high concentration (10^−6 M) of unlabeled [Sar^1, Ile^8]. […] The radioactivity trapped on the filters was quantified using an automatic γ-counter. The percentage (%) of specific binding of ^125I-[Sar^1, Ile^8]Ang II was calculated using the following formula: 100 × (% total binding of ^125I-[Sar^1, Ile^8]Ang II—nonspecific binding of ^125I-[Sar^1, Ile^8]Ang II)/(% total binding of ^125I-[Sar^1, Ile^8]Ang II).

Kd [1] [µM]	Kd [2] [µM]	Structure (SMILES)
0.334 ± 0.105	–	CCCc1nc(C(C)(C)O)c(C(=O)O)n1Cc1ccc(-c2ccccc2-c2nnn[nH]2)cc1 [Olmesartan, olmesartan]
0.069 ± 0.008	0.037 ± 0.012	CCCc1nc(C(C)(C)O)c(C(N)=O)n1Cc1ccc(-c2ccccc2-c2nnn[nH]2)cc1 [R239470]
> 10	0.023 ± 0.007	CCCc1nc(C(C)(C)O)c(C(=O)O)n1Cc1ccc(-c2cc(Cc3ccc(O)cc3)ccc2-c2nnn[nH]2)cc1 [R781253]
> 10	–	CCCc1nc(C(C)(C)O)c(C(N)=O)n1Cc1ccc(-c2cc(Cc3ccc(O)cc3)ccc2-c2nnn[nH]2)cc1 [R794847]
